In series [1] the test system is Staphylococcus aureus strain 15981. The experiment in a line: Antimicrobial efficacy test: survival of planktonic S. aureus after short exposure. Format: cell-based. The following applies: 0.1wt-% of CHG, alone or in combination with DYNOL (text summary, matches Table 4). The text has this:
The composition described herein can reduce and eliminate Staphylococcus aureus and Pseudomonas aeruginosa. Those of ordinary skill in the art will readily determine when a composition provides antimicrobial activity using assay and bacterial screening methods well known in the art. For example, the compositions can be evaluated utilizing Antimicrobial Efficacy Test described in the Examples Section. Briefly, a bacterial suspension is introduced into a liquid composition. After a sufficient contact time, the sample containing the exposed bacteria is collected, placed in neutralizing broth, a sample is taken and diluted, and plated on growth medium. The plated sample is incubated at an appropriate temperature and humidity for twenty four to forty-eight hours and the number of viable bacterial colonies growing on the plate is counted. Once colonies have been counted the reduction in the number of bacteria caused by the test composition is readily determined. Bacterial reduction is generally reported as log10 reduction determined by the difference between the log10 of the initial inoculum count (i.e. the control) and the log10 of the inoculum count after exposure. […]

The conditions of series [2]: cited from earlier work.

The values that follow come from patent publication US20200323213A1, “Methods of use for compositions comprising biguanide compound and diol surfactant” (3M INNOVATIVE PROPERTIES COMPANY, priority 2014, published 2020).

In the case of `N=C(NCCCCCCNC(=N)NC(=N)Nc1ccc(Cl)cc1)NC(=N)Nc1ccc(Cl)cc1.O=C(O)[C@H](O)[C@@H](O)[C@H](O)[C@H](O)CO.O=C(O)[C@H](O)[C@@H](O)[C@H](O)[C@H](O)CO` [CHG, chlorhexidine digluconate], the log10 reduction in series [1] stood at 0.32.

`CC(=O)O.CC(=O)O.NC(=N\CCCCCC/N=C(N)/N=C(\N)Nc1ccc(Cl)cc1)/N=C(\N)Nc1ccc(Cl)cc1` [diacetate]: the “solubility in aqueous fluid” value in series [2] is reported as 1.9 g/100 ml.
